# From ChEMBL document CHEMBL3217431, “Synthesis, in silico screening and bioevaluation of dispiro-cycloalkanones as antitubercular and mycobacterial NAD+-dependent DNA ligase inhibitors” (Medchemcomm, 2011)
# Test system: Escherichia coli
# Assay: In vivo antibacterial activity against Escherichia coli GR501 harboring lig251 temperature-sensitive mutant gene transformed with plasmid encoding Mycobacterium tuberculosis NAD+ DNA ligase assessed as growth inhibition after 20 hrs by microdilution assay
# Format: functional
# Details: GR501, 20 h
row,SMILES,MIC
1,O=C1C2(CCCC13CC3c1ccc(F)cc1)CC2c1ccc(F)cc1 (configuration not stated),44.3 µM
2,O=C1C2(CCCC13CC3c1ccc(Br)cc1)CC2c1ccc(Br)cc1 (configuration not stated),52.1 µM
